From patent publication US7977358B2, “Pyrazol derivatives” (Hoffmann-La Roche Inc., priority 2007, dated 2011) come the findings set out here.

This test addresses T1, human chemokine receptor 2 isoform B (CCR2B) (Homo sapiens, UniProt P41597).
T1 construct: host or cells: CHOK1-CCR2B-A5 (CHO-K1) cells
T1 sequence (P41597 1-360 isoform P41597-2): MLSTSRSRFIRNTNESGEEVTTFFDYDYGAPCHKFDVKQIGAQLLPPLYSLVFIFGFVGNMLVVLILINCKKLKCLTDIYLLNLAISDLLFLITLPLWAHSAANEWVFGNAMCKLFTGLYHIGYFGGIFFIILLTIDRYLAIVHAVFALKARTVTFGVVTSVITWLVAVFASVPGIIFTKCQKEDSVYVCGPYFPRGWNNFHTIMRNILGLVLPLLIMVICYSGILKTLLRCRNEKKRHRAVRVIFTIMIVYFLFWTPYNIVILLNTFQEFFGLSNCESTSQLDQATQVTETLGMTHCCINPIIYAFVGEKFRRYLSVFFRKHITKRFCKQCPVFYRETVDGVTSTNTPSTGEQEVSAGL
The experiment in a line: Calcium mobilization assay. Conditions: CHOK1-CCR2B-A5 cells, 20 nM MCP-1, FLIPR. It is filed as cell-based. On the procedure:
Calcium Mobilization Assay
CHOK1-CCR2B-A5 cells (from Euroscreen) stably overexpressing the human chemokine receptor 2 isoform B were cultured in Nutrient Hams F12 medium supplemented with 5% FBS, 100 U/ml penicillin, 100 μg/ml streptomycin, 400 μg/ml G418 and 5 μg/ml puromycin. For the assay cells were grown overnight in 384-well black clear flat bottom polystyrene plates (Costar) at 37° C. at 5% CO2. After washing with DMEM, 20 mM Hepes, 2.5 mM probenecid, 0.1% BSA (DMEM assay buffer) cells were loaded with 4 μM Fluo-4 in the same DMEM assay buffer for 2 hours at 30° C. Excess dye was removed and cells were washed with DMEM assay buffer. 384-well compound plates were prepared with DMEM assay buffer/0.5% DMSO with or without various concentrations of test compounds. Usually compounds were tested for agonist and antagonist activity.
Test compounds were added to the assay plate and agonist activity was monitored as fluorescence for 80 seconds with a FLIPR (488 nm excitation; 510-570 nm emission; Molecular Devices). After 20-30 min. of incubation at 30° C., 20 nM MCP-1 (R&D; Roche) was added and fluorescence was monitored again for 80 seconds. Increases in intracellular calcium are reported as maximum fluorescence after agonist exposure minus basal fluorescence before exposure. Antagonist activity is indicated as inhibitor concentration required for 50% inhibition of specific calcium increases.
A general note: Calcium flux is commonly read through the fluorescence of an indicator in the cells.
One may read the IC50 as the concentration that gives 50% inhibition. On to `Cc1nn(-c2cccc(OC(F)(F)F)c2)c(C2CC2)c1C(=O)N1CCC(N2CCC3(C2)NC(=O)NC3=O)CC1` (centres unmarked) [Example 139, 7-{1-[5-Cyclopropyl-3-methyl-1-(3-trifluoromethoxy-phenyl)-1H-pyrazole-4-carbonyl]-piperidin-4-yl}-1,3,7-triaza-spiro[4.4]nonane-2,4-dione], for which the IC50 worked out at 141 nM.
As for `CCN(CC)C1CCN(C(=O)c2c(C)nn(-c3cccc(/C=C/c4ccc(Cl)cc4)c3)c2C)C1` (centres unmarked) [Example 29, (1-{3-[(E)-2-(4-Chloro-phenyl)-vinyl]-phenyl}-3,5-dimethyl-1H-pyrazol-4-yl)-(3-diethylamino-pyrrolidin-1-yl)-methanone], the figure is 100 nM; as for `O=C(c1c(C2CC2)nn(-c2cccc(OC(F)(F)F)c2)c1C1CC1)N1CCC(N2CCCC2)CC1` [Example 76, [3,5-Dicyclopropyl-1-(3-trifluoromethoxy-phenyl)-1H-pyrazol-4-yl]-(4-pyrrolidin-1-yl-piperidin-1-yl)-methanone], 122 nM; as for `Cc1nn(-c2cccc(OC(F)(F)F)c2)c(C)c1C(=O)N1CCC(N2CCCC2C)C1` (centres unmarked) [Example 122, [3,5-Dimethyl-1-(3-trifluoromethoxy-phenyl)-1H-pyrazol-4-yl]-(2-methyl-[1,3′]bipyrrolidinyl-1′-yl)-methanone], 730 nM.
With `Cc1nn(-c2cccc(OC(F)(F)F)c2)c(C2CC2)c1C(=O)N1CCC(N2C[C@@H](O)CC2C)CC1` (stereo in doubt) [Example 138, [5-Cyclopropyl-3-methyl-1-(3-trifluoromethoxy-phenyl)-1H-pyrazol-4-yl]-[4-((2R,4S)-4-hydroxy-2-methyl-pyrrolidin-1-yl)-piperidin-1-yl]-methanone], the IC50 turned out to be 154 nM.
For the compound `Cc1c(C(=O)N2CCC(N3CCC[C@H]3CO)CC2)c(-c2ccncc2)nn1-c1cccc(OC(F)(F)F)c1` [Example 161, [4-((S)-2-Hydroxymethyl-pyrrolidin-1-yl)-piperidin-1-yl]-[5-methyl-3-pyridin-4-yl-1-(3-trifluoromethoxy-phenyl)-1H-pyrazol-4-yl]-methanone], the half-inhibitory concentration (IC50) came to 97.2 nM.
In the case of `CC(=O)N[C@@H]1CCN(C2CCN(C(=O)c3c(C)nn(-c4cccc(OC(F)(F)F)c4)c3C)CC2)C1` [Example 119, N-((R)-1-{1-[3,5-Dimethyl-1-(3-trifluoromethoxy-phenyl)-1H-pyrazole-4-carbonyl]-piperidin-4-yl}-pyrrolidin-3-yl)-acetamide], the IC50 is 306 nM.
In the case of `Cc1nn(-c2cccc(C(F)(F)F)c2)c(C)c1C(=O)N1CCC(N2CCOCC2)CC1` [Example 83, [3,5-Dimethyl-1-(3-trifluoromethyl-phenyl)-1H-pyrazol-4-yl]-(4-morpholin-4-yl-piperidin-1-yl)-methanone], the IC50 was 658 nM.
